# Measured values: PMC10794144, “A novel antibiotic class targeting the lipopolysaccharide transporter” (Nature, 2024)
# Read-outs that look alike come from different tables or passages of the source.
# Tests used:
# E. coli ATCC 25922 = assay: microbe, parasite or virus in culture; conditions: for MIC: Escherichia coli
# Procedure, shortened: (§1)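 Broth microdilution per CLSI M07/M100, with inocula diluted from a 0.5 McFarland suspension in CAMHB, or LB for A. baylyi. MIC was read as the lowest concentration inhibiting growth by eye or beyond which OD600 stopped decreasing.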
# A. baumannii = assay: microbe, parasite or virus in culture; conditions: for MIC90 / MIC: Acinetobacter baumannii
# Procedure, shortened: as §1
compound,measurement,setting,value
"C[C@@H](O)[C@H]1C(=O)N2C(C(=O)O)=C(S[C@@H]3CN[C@H](C(=O)N(C)C)C3)[C@H](C)[C@H]12 [meropenem, reference compound]",MIC,E. coli ATCC 25922; ATCC25922,≤ 0.06 µg/mL
same,MIC,"E. coli ATCC 25922; ATCC25922, read-out: MIC 100%",≤ 0.06 µg/mL
same,MIC 100%,E. coli ATCC 25922; Study LGC277937,≤0.06 mg/L
same,MIC 100%,E. coli ATCC 25922; Study LGC279800,≤0.06 mg/L
same,MIC 100%,E. coli ATCC 25922; Study LGC281440,≤0.06 mg/L
same,MIC 100%,E. coli ATCC 25922; Study LGC282160,≤0.06 mg/L
same,MIC 100%,E. coli ATCC 25922; Study LGC282623,≤0.06 mg/L
same,MIC 100%,E. coli ATCC 25922; Study LGC283932,≤0.06 mg/L
same,MIC 100%,E. coli ATCC 25922; Study LGC284200,≤0.06 mg/L
same,MIC 100%,E. coli ATCC 25922; Study LGC284879,≤0.06 mg/L
same,MIC 100%,E. coli ATCC 25922; Study LGC285582,≤0.06 mg/L
same,MIC 100%,E. coli ATCC 25922; Study LGC286210,≤0.06 mg/L
same,MIC 100%,E. coli ATCC 25922; Study LGC293598,≤0.06 mg/L
same,MIC 100%,E. coli ATCC 25922; Study LGC294355,≤0.06 mg/L
same,MIC 100%,E. coli ATCC 25922; Study LGC295147,≤0.06 mg/L
same,MIC 100%,E. coli ATCC 25922; Study LGC296813,≤0.06 mg/L
same,MIC 100%,E. coli ATCC 25922; Study LGC299544,≤0.06 mg/L
same,MIC 100%,E. coli ATCC 25922; Study LGC301026,≤0.06 mg/L
same,MIC 100%,E. coli ATCC 25922; Study LGC308175,≤0.06 mg/L
same,MIC 100%,E. coli ATCC 25922; Study ROC003,≤0.06 mg/L
same,MIC 100%,E. coli ATCC 25922; Study ROC004,≤0.06 mg/L
same,MIC 100%,E. coli ATCC 25922; Study ROC005,≤0.06 mg/L
same,MIC 100%,E. coli ATCC 25922; Study ROC006,≤0.06 mg/L
same,MIC 100%,E. coli ATCC 25922; Study ROC007,≤0.06 mg/L
same,MIC 100%,E. coli ATCC 25922; Study ROC008,≤0.06 mg/L
same,MIC 100%,E. coli ATCC 25922; Study ROC009,≤0.06 mg/L
same,MIC 100%,E. coli ATCC 25922; Study ROC010,≤0.06 mg/L
same,MIC 100%,E. coli ATCC 25922; Study ROC013,≤0.06 mg/L
same,MIC range,"A. baumannii; 10 MDR isolates, CAMHB, MCPs read at 80% growth inhibition",1 to 64 mg/L
same,MIC90,A. baumannii,64 µg/mL
same,MIC90,"A. baumannii; 129 clinical isolates, CAMHB",> 16 µg/mL
same,MIC,"A. baumannii; ACC00445, CAMHB, MCPs read at 80% inhibition",> 16 µg/mL
same,MIC,"A. baumannii; ACC00535, CAMHB, MCPs read at 80% inhibition",> 16 µg/mL
same,MIC,"A. baumannii; ACC01073, CAMHB, MCPs read at 80% inhibition",16 µg/mL
same,MIC,"A. baumannii; ACC01077, CAMHB, MCPs read at 80% inhibition",> 16 µg/mL
same,MIC,"A. baumannii; ACC01085 / AR0307, CAMHB, MCPs read at 80% inhibition",8 µg/mL
same,MIC,"A. baumannii; ATCC17978, ATCC 17978, CAMHB, MCPs read at 80% inhibition",0.25 µg/mL
same,MIC,"A. baumannii; ATCC17978, ATCC 17978, CAMHB, one replicate, MCPs read at 80% growth inhibition",0.5 µg/mL
same,MIC,"A. baumannii; ATCC17978, read-out: MIC 100%, ATCC 17978, Study LGC301026, 100%",0.25 µg/mL
same,MIC,"A. baumannii; ATCC17978, read-out: MIC 100%, ATCC 17978, Study LGC308175, 100%",0.5 µg/mL
same,MIC,"A. baumannii; ATCC19606, ATCC 19606, CAMHB, MCPs read at 80% growth inhibition",1 µg/mL
same,MIC,"A. baumannii; ATCC19606, ATCC 19606, CAMHB, MCPs read at 80% inhibition",1 µg/mL
same,MIC,"A. baumannii; ATCC19606, read-out: MIC 100%, ATCC 19606, Study LGC277937, 100%",1 µg/mL
same,MIC,"A. baumannii; ATCC19606, read-out: MIC 100%, ATCC 19606, Study LGC279800, 100%",1 µg/mL
same,MIC,"A. baumannii; ATCC19606, read-out: MIC 100%, ATCC 19606, Study LGC281440, 100%",1 µg/mL
same,MIC,"A. baumannii; ATCC19606, read-out: MIC 100%, ATCC 19606, Study LGC282160, 100%",1 µg/mL
same,MIC,"A. baumannii; ATCC19606, read-out: MIC 100%, ATCC 19606, Study LGC282623, 100%",0.5 µg/mL
same,MIC,"A. baumannii; ATCC19606, read-out: MIC 100%, ATCC 19606, Study LGC283932, 100%",1 µg/mL
same,MIC,"A. baumannii; ATCC19606, read-out: MIC 100%, ATCC 19606, Study LGC284200, 100%",1 µg/mL
same,MIC,"A. baumannii; ATCC19606, read-out: MIC 100%, ATCC 19606, Study LGC284879, 100%",4 µg/mL
same,MIC,"A. baumannii; ATCC19606, read-out: MIC 100%, ATCC 19606, Study LGC285582, 100%",4 µg/mL
same,MIC,"A. baumannii; ATCC19606, read-out: MIC 100%, ATCC 19606, Study LGC286210, 100%",2 µg/mL
same,MIC,"A. baumannii; ATCC19606, read-out: MIC 100%, ATCC 19606, Study LGC293598, 100%",2 µg/mL
same,MIC,"A. baumannii; ATCC19606, read-out: MIC 100%, ATCC 19606, Study LGC294355, 100%",2 µg/mL
same,MIC,"A. baumannii; ATCC19606, read-out: MIC 100%, ATCC 19606, Study LGC295147, 100%",2 µg/mL
same,MIC,"A. baumannii; ATCC19606, read-out: MIC 100%, ATCC 19606, Study LGC296813, 100%",2 µg/mL
same,MIC,"A. baumannii; ATCC19606, read-out: MIC 100%, ATCC 19606, Study LGC299544, 100%",4 µg/mL
same,MIC,"A. baumannii; ATCC19606, read-out: MIC 100%, ATCC 19606, Study LGC301026, 100%",4 µg/mL
same,MIC,"A. baumannii; ATCC19606, read-out: MIC 100%, ATCC 19606, Study LGC308175, 100%",1 µg/mL
same,MIC,"A. baumannii; ATCC19606, read-out: MIC 100%, ATCC 19606, Study ROC003, 100%",1 µg/mL
same,MIC,"A. baumannii; ATCC19606, read-out: MIC 100%, ATCC 19606, Study ROC004, 100%",1 µg/mL
same,MIC,"A. baumannii; ATCC19606, read-out: MIC 100%, ATCC 19606, Study ROC005, 100%",1 µg/mL
same,MIC,"A. baumannii; ATCC19606, read-out: MIC 100%, ATCC 19606, Study ROC006, 100%",1 µg/mL
same,MIC,"A. baumannii; ATCC19606, read-out: MIC 100%, ATCC 19606, Study ROC007, 100%",2 µg/mL
same,MIC,"A. baumannii; ATCC19606, read-out: MIC 100%, ATCC 19606, Study ROC008, 100%",1 µg/mL
same,MIC,"A. baumannii; ATCC19606, read-out: MIC 100%, ATCC 19606, Study ROC009, 100%",2 µg/mL
same,MIC,"A. baumannii; ATCC19606, read-out: MIC 100%, ATCC 19606, Study ROC010, 100%",2 µg/mL
same,MIC,"A. baumannii; ATCC19606, read-out: MIC 100%, ATCC 19606, Study ROC012, 100%",0.5 µg/mL
same,MIC,"A. baumannii; ATCC19606, read-out: MIC 100%, ATCC 19606, Study ROC013, 100%",4 µg/mL
same,MIC,"A. baumannii; ATCCBAA747, ATCC BAA-747, CAMHB, MCPs read at 80% inhibition",0.12 µg/mL
same,MIC,"A. baumannii; ROB08701, CAMHB, MCPs read at 80% inhibition",1 µg/mL
same,MIC,"A. baumannii; ROB08702, CAMHB, MCPs read at 80% inhibition",> 16 µg/mL
same,MIC,"A. baumannii; ROB08703, CAMHB, MCPs read at 80% inhibition",> 16 µg/mL
same,MIC,"A. baumannii; ROB08704, CAMHB, MCPs read at 80% inhibition",> 16 µg/mL
same,MIC,"A. baumannii; ROB08705, CAMHB, MCPs read at 80% inhibition",> 16 µg/mL
same,MIC,"A. baumannii; ROB08706, CAMHB, MCPs read at 80% inhibition",> 16 µg/mL
same,MIC,"A. baumannii; ROB08707, CAMHB, MCPs read at 80% inhibition",> 16 µg/mL
same,MIC,"A. baumannii; ROB08708, CAMHB, MCPs read at 80% inhibition",16 µg/mL
same,MIC,"A. baumannii; ROB08709, CAMHB, MCPs read at 80% inhibition",> 16 µg/mL
same,MIC,"A. baumannii; ROB08710, CAMHB, MCPs read at 80% inhibition",> 16 µg/mL
same,MIC,"A. baumannii; read-out: MIC 100%, ROB08701, Study LGC277937, 100%",1 µg/mL
same,MIC,"A. baumannii; read-out: MIC 100%, ROB08701, Study LGC279800, 100%",1 µg/mL
same,MIC,"A. baumannii; read-out: MIC 100%, ROB08701, Study LGC281440, 100%",1 µg/mL
same,MIC,"A. baumannii; read-out: MIC 100%, ROB08701, Study LGC282160, 100%",1 µg/mL
same,MIC,"A. baumannii; read-out: MIC 100%, ROB08701, Study LGC282623, 100%",1 µg/mL
same,MIC,"A. baumannii; read-out: MIC 100%, ROB08701, Study LGC283932, 100%",1 µg/mL
